PubChem BioAssay AID256 (DTP/NCI, 2004)
Where “and” joins values, the source holds several entries; their conditions need not be identical. Identical values can stand only once. Inconclusive results and toxic doses are left out.

Test system: CD2F1 mice, L1210 leukemia ip, survival T/C
Assay: NCI In Vivo Anticancer Drug Screen. Data for tumor model L1210 Leukemia (intraperitoneal) in CD2F1 (CDF1) mice
Conditions: higher = longer survival
Outline: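 In this screen, transplantable tumors were grown in mice given either the compound or its vehicle. Results were expressed as the treated measurement relative to the control measurement.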

[1] = endpoint: mean survival time, dose: 100.0 mg/kg/injection, schedule: Q01DX001 (ip), vehicle: saline with Tween-80
[2] = endpoint: mean survival time, dose: 200.0 mg/kg/injection, schedule: Q01DX001 (ip), vehicle: saline with Tween-80
[3] = endpoint: mean survival time, dose: 100.0 mg/kg/injection, schedule: Q01DX009 (ip), vehicle: saline with Tween-80
[4] = endpoint: mean survival time, dose: 100.0 mg/kg/injection, schedule: Q04DX003 (ip), vehicle: saline with Tween-80
[5] = endpoint: mean survival time, dose: 200.0 mg/kg/injection, schedule: Q01DX009 (ip), vehicle: saline with Tween-80
[6] = endpoint: mean survival time, dose: 200.0 mg/kg/injection, schedule: Q04DX003 (ip), vehicle: saline with Tween-80
[7] = endpoint: mean survival time, dose: 400.0 mg/kg/injection, schedule: Q01DX009 (ip), vehicle: saline with Tween-80
[8] = endpoint: mean survival time, dose: 100.0 mg/kg/injection, schedule: Q04DX003 (ip), vehicle: saline
[9] = endpoint: mean survival time, dose: 200.0 mg/kg/injection, schedule: Q04DX003 (ip), vehicle: saline
[10] = endpoint: mean survival time, dose: 400.0 mg/kg/injection, schedule: Q04DX003 (ip), vehicle: saline
[11] = endpoint: mean survival time, dose: 100.0 mg/kg/injection, schedule: Q04DX002 (ip), vehicle: saline with Tween-80
[12] = endpoint: mean survival time, dose: 200.0 mg/kg/injection, schedule: Q04DX002 (ip), vehicle: saline with Tween-80

N#Cc1nc(N)nc2c1ncn2C1OC(CO)C(O)C1O (stereo not given)
T/C (endpoint: median survival time, dose: 8.75 mg/kg/injection, schedule: Q01DX005 (ip), vehicle: distilled water + Tween-80): 100 % of control | T/C (endpoint: median survival time, dose: 17.5 mg/kg/injection, schedule: Q01DX005 (ip), vehicle: distilled water + Tween-80): 107 % of control | T/C (endpoint: median survival time, dose: 35.0 mg/kg/injection, schedule: Q01DX005 (ip), vehicle: distilled water + Tween-80): 100 % of control | T/C (endpoint: median survival time, dose: 70.0 mg/kg/injection, schedule: Q01DX005 (ip), vehicle: distilled water + Tween-80): 100 % of control | T/C (endpoint: median survival time, dose: 140.0 mg/kg/injection, schedule: Q01DX005 (ip), vehicle: distilled water + Tween-80): 101 % of control

CC1=NN(c2ccc([N+](=O)[O-])cc2)C(=O)C1[N+](=O)[O-] (stereo not given) (tested in a mixture with another compound)
T/C (endpoint: mean survival time, dose: 75.0 mg/kg/injection, schedule: Q01DX001 (ip), vehicle: other): 92 % of control | T/C [1]: 91 % of control | T/C (endpoint: mean survival time, dose: 150.0 mg/kg/injection, schedule: Q01DX001 (ip), vehicle: other): 104 % of control | T/C [2]: 97 % of control

Nc1ncnc2c1ncn2C1C=C(CO)C(O)C1O (stereo not given)
T/C (endpoint: mean survival time, dose: 0.25 mg/kg/injection, schedule: Q01DX009 (ip), vehicle: Klucel (hydroxypropylcellulose) (HPC)): 122 % of control | T/C (endpoint: mean survival time, dose: 0.5 mg/kg/injection, schedule: Q01DX009 (ip), vehicle: Klucel (hydroxypropylcellulose) (HPC)): 113 % of control and 123 % of control | T/C (endpoint: mean survival time, dose: 1.0 mg/kg/injection, schedule: Q01DX009 (ip), vehicle: Klucel (hydroxypropylcellulose) (HPC)): 124 % of control | T/C (endpoint: mean survival time, dose: 4.0 mg/kg/injection, schedule: Q01DX009 (ip), vehicle: Klucel (hydroxypropylcellulose) (HPC)): 122 % of control

O=C(OC1COC(OC(=O)c2ccccc2)C(OC(=O)c2ccccc2)C1OC(=O)c1ccccc1)c1ccccc1 (stereo not given)
T/C [3]: 97 % of control | T/C [4]: 101 % of control | T/C [5]: 95 % of control | T/C [6]: 86 % of control | T/C [7]: 97 % of control | T/C (endpoint: mean survival time, dose: 400.0 mg/kg/injection, schedule: Q04DX003 (ip), vehicle: saline with Tween-80): 95 % of control

COC(=O)c1cc(Cl)cc(C(=O)OC)c1
T/C [3]: 95 % of control | T/C [5]: 88 % of control

CCCCCCCCCCCCCC(CCCCCCCCCC)CCCCCCCCCC
T/C [1]: 98 % of control | T/C [2]: 103 % of control | T/C (endpoint: mean survival time, dose: 400.0 mg/kg/injection, schedule: Q01DX001 (ip), vehicle: saline with Tween-80): 104 % of control

Cc1nc2ccccc2n1C
T/C (endpoint: mean survival time, dose: 25.0 mg/kg/injection, schedule: Q01DX009 (ip), vehicle: saline with Tween-80): 105 % of control | T/C (endpoint: mean survival time, dose: 50.0 mg/kg/injection, schedule: Q01DX009 (ip), vehicle: saline with Tween-80): 96 % of control | T/C [3]: 104 % of control

O=C(O)C(O)C(O)C(O)C(O)C(=O)O.[NH-]C1CCCCC1[NH-].[Pt+2] (stereo not given)
T/C (endpoint: median survival time, dose: 6.25 mg/kg/injection, schedule: Q04DX003 (ip), vehicle: saline): 116 % of control and 112 % of control | T/C (endpoint: median survival time, dose: 12.5 mg/kg/injection, schedule: Q04DX003 (ip), vehicle: saline): 121 % of control and 123 % of control | T/C (endpoint: median survival time, dose: 25.0 mg/kg/injection, schedule: Q04DX003 (ip), vehicle: saline): 123 % of control | T/C (endpoint: median survival time, dose: 50.0 mg/kg/injection, schedule: Q04DX003 (ip), vehicle: saline): 151 % of control and 152 % of control | T/C (endpoint: median survival time, dose: 100.0 mg/kg/injection, schedule: Q04DX003 (ip), vehicle: saline): 167 % of control and 187 % of control

CCC(=O)c1cc(OC)cc(OC)c1
T/C [8]: 100 % of control | T/C [9]: 101 % of control | T/C [10]: 103 % of control

C1=[N+](c2ccccc2)CCN1c1ccccc1
T/C (endpoint: mean survival time, dose: 75.0 mg/kg/injection, schedule: Q01DX001 (ip), vehicle: saline): 95 % of control | T/C (endpoint: mean survival time, dose: 150.0 mg/kg/injection, schedule: Q01DX001 (ip), vehicle: saline): 98 % of control

CC1C(=O)OC2C1CCC1(C)C=CC(=O)C(C)C21 (stereo not given)
T/C (endpoint: mean survival time, dose: 5.0 mg/kg/injection, schedule: Q04DX002 (ip), vehicle: saline with Tween-80): 108 % of control | T/C (endpoint: mean survival time, dose: 10.0 mg/kg/injection, schedule: Q04DX002 (ip), vehicle: saline with Tween-80): 100 % of control | T/C (endpoint: mean survival time, dose: 20.0 mg/kg/injection, schedule: Q04DX002 (ip), vehicle: saline with Tween-80): 108 % of control | T/C [11]: 116 % of control | T/C [12]: 120 % of control

CCOC(=O)C1=C(C)N(Cc2ccccc2)C(C)=C(C(=O)OCC)C1(C)C
T/C [3]: 107 % of control | T/C [5]: 109 % of control | T/C [7]: 107 % of control

O=C(O)C(C(=O)O)C1C=CCC1 (stereo not given)
T/C (endpoint: mean survival time, dose: 50.0 mg/kg/injection, schedule: Q04DX002 (ip), vehicle: saline with Tween-80): 98 % of control | T/C [11]: 102 % of control | T/C [12]: 87 % of control | T/C (endpoint: mean survival time, dose: 400.0 mg/kg/injection, schedule: Q04DX002 (ip), vehicle: saline with Tween-80): 87 % of control

[Cl][Pt+2][Cl].[NH-]CC1(C[NH-])CCC1
T/C (endpoint: mean survival time, dose: 3.12 mg/kg/injection, schedule: Q04DX003 (ip), vehicle: saline): 111 % of control | T/C (endpoint: mean survival time, dose: 12.5 mg/kg/injection, schedule: Q04DX003 (ip), vehicle: saline): 229 % of control | T/C (endpoint: mean survival time, dose: 25.0 mg/kg/injection, schedule: Q04DX003 (ip), vehicle: saline): 272 % of control | T/C (endpoint: mean survival time, dose: 50.0 mg/kg/injection, schedule: Q04DX003 (ip), vehicle: saline): 174 % of control and 231 % of control | T/C [8]: 164 % of control and 335 % of control | T/C [9]: 90 % of control | T/C (endpoint: median survival time, dose: 0.1 mg/kg/injection, schedule: Q01DX009 (ip), vehicle: Klucel (hydroxypropylcellulose) (HPC)): 111 % of control | T/C (endpoint: median survival time, dose: 0.2 mg/kg/injection, schedule: Q01DX009 (ip), vehicle: Klucel (hydroxypropylcellulose) (HPC)): 111 % of control | T/C (endpoint: median survival time, dose: 1.5 mg/kg/injection, schedule: Q01DX009 (ip), vehicle: carboxymethylcellulose (CMC)): 239 % of control | T/C (endpoint: median survival time, dose: 3.0 mg/kg/injection, schedule: Q01DX009 (ip), vehicle: carboxymethylcellulose (CMC)): 281 % of control | T/C (endpoint: median survival time, dose: 3.12 mg/kg/injection, schedule: Q01DX009 (ip), vehicle: Klucel (hydroxypropylcellulose) (HPC)): 222 % of control and 320 % of control | T/C (endpoint: median survival time, dose: 3.13 mg/kg/injection, schedule: Q01DX009 (ip), vehicle: Klucel (hydroxypropylcellulose) (HPC)): 169 % of control and 206 % of control | T/C (endpoint: median survival time, dose: 6.0 mg/kg/injection, schedule: Q01DX001 (ip), vehicle: carboxymethylcellulose (CMC)): 171 % of control | T/C (endpoint: median survival time, dose: 8.0 mg/kg/injection, schedule: Q01DX001 (ip), vehicle: other): 186 % of control | T/C (endpoint: median survival time, dose: 9.0 mg/kg/injection, schedule: Q01DX001 (ip), vehicle: carboxymethylcellulose (CMC)): 176 % of control | T/C (endpoint: median survival time, dose: 9.0 mg/kg/injection, schedule: Q01DX009 (ip), vehicle: carboxymethylcellulose (CMC)): 114 % of control | T/C (endpoint: median survival time, dose: 12.0 mg/kg/injection, schedule: Q01DX001 (ip), vehicle: carboxymethylcellulose (CMC)): 203 % of control | T/C (endpoint: median survival time, dose: 12.0 mg/kg/injection, schedule: Q01DX001 (ip), vehicle: other): 212 % of control | T/C (endpoint: median survival time, dose: 15.0 mg/kg/injection, schedule: Q01DX001 (ip), vehicle: carboxymethylcellulose (CMC)): 203 % of control | T/C (endpoint: median survival time, dose: 16.0 mg/kg/injection, schedule: Q01DX001 (ip), vehicle: other): 242 % of control | T/C (endpoint: median survival time, dose: 20.0 mg/kg/injection, schedule: Q01DX001 (ip), vehicle: other): 103 % of control

Oc1ccc(NC(=S)Nc2ccccc2)cc1
T/C (endpoint: mean survival time, dose: 100.0 mg/kg/injection, schedule: Q01DX001 (ip), vehicle: saline): 98 % of control | T/C (endpoint: mean survival time, dose: 200.0 mg/kg/injection, schedule: Q01DX001 (ip), vehicle: saline): 98 % of control | T/C (endpoint: mean survival time, dose: 400.0 mg/kg/injection, schedule: Q01DX001 (ip), vehicle: saline): 96 % of control

C1CN(CCSSCCN2CCOCC2)CCO1
T/C (endpoint: mean survival time, dose: 50.0 mg/kg/injection, schedule: Q01DX009 (ip), vehicle: saline sonified): 100 % of control | T/C (endpoint: mean survival time, dose: 100.0 mg/kg/injection, schedule: Q01DX009 (ip), vehicle: saline sonified): 100 % of control | T/C [4]: 104 % of control | T/C (endpoint: mean survival time, dose: 200.0 mg/kg/injection, schedule: Q01DX009 (ip), vehicle: saline sonified): 103 % of control | T/C [6]: 104 % of control

COc1nccnc1NS(=O)(=O)c1ccc(N)cc1
T/C [8]: 98 % of control | T/C [9]: 100 % of control | T/C [10]: 104 % of control

O=C1CC2CCC1C2Cl (stereo not given)
T/C (endpoint: mean survival time, dose: 6.25 mg/kg/injection, schedule: Q04DX003 (ip), vehicle: saline with Tween-80): 101 % of control | T/C (endpoint: mean survival time, dose: 12.5 mg/kg/injection, schedule: Q04DX003 (ip), vehicle: saline with Tween-80): 113 % of control | T/C (endpoint: mean survival time, dose: 25.0 mg/kg/injection, schedule: Q04DX003 (ip), vehicle: saline with Tween-80): 97 % of control | T/C (endpoint: mean survival time, dose: 50.0 mg/kg/injection, schedule: Q04DX003 (ip), vehicle: saline with Tween-80): 97 % of control
